Our source for the Ki and IC50 values is ChEMBL document CHEMBL1136542, “Discovery of N-hydroxy-2-(2-oxo-3-pyrrolidinyl)acetamides as potent and selective inhibitors of tumor necrosis factor-alpha converting enzyme (TACE)” (Bioorg Med Chem Lett, 2003).

One assay has as its target T1, Interstitial collagenase (Homo sapiens, UniProt P03956).
T1 sequence (P03956 whole entry): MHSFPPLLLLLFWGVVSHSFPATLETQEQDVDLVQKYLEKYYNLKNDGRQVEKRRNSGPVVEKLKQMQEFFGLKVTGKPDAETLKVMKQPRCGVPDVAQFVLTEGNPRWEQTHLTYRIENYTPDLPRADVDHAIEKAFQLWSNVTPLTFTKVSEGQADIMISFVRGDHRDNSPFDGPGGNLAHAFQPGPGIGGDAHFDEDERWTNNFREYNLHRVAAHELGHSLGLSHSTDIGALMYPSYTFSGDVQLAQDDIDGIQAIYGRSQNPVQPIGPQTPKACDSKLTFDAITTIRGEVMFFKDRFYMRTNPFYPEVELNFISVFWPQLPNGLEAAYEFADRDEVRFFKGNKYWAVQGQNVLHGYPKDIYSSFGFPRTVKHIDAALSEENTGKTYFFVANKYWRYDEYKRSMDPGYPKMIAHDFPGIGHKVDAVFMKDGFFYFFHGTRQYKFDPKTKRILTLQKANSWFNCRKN
Description: In vitro inhibition of Matrix metalloprotease-1.

The target in assay [1] is 72 kDa type IV collagenase (Homo sapiens, UniProt P08253).
Description: In vitro inhibition of Matrix metalloprotease-2
The target of assay [2] is Disintegrin and metalloproteinase domain-containing protein 17 (Homo sapiens, UniProt P78536). In words: Inhibition of TNF-alpha production from LPS stimulated human whole blood. The assay is classed as functional, tissue-based.
Assay [3] concerns the target Disintegrin and metalloproteinase domain-containing protein 17 (Sus scrofa, UniProt O77636). In words: In vitro inhibition of TNF-alpha converting enzyme.
In assay [4] the target is Matrix metalloproteinase-9 (Homo sapiens, UniProt P14780). Description: In vitro inhibition of Matrix metalloprotease-9.
Matrix metalloproteinase-9, sequence (P14780 whole entry): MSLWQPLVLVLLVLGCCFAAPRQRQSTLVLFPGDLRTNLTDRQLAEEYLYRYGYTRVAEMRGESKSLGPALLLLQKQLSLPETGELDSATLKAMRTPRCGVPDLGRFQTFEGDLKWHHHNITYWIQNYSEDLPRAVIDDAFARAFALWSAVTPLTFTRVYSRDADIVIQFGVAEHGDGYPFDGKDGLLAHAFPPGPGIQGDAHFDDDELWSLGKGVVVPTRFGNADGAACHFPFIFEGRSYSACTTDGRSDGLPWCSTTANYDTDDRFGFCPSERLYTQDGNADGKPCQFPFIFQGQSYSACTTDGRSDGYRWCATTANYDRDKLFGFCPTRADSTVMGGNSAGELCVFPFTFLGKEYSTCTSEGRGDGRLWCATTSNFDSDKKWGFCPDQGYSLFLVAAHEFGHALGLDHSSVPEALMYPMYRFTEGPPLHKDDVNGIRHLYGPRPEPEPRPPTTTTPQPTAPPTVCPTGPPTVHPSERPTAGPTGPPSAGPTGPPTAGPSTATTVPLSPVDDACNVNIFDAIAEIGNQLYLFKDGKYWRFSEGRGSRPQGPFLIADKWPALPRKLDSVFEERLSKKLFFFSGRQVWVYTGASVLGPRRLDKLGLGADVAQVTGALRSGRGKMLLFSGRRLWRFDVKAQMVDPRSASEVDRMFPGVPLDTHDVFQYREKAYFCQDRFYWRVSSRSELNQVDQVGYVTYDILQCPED

Disintegrin and metalloproteinase domain-containing protein 17 (Sus scrofa, UniProt O77636), sequence (O77636 whole entry, the tested form may be a part): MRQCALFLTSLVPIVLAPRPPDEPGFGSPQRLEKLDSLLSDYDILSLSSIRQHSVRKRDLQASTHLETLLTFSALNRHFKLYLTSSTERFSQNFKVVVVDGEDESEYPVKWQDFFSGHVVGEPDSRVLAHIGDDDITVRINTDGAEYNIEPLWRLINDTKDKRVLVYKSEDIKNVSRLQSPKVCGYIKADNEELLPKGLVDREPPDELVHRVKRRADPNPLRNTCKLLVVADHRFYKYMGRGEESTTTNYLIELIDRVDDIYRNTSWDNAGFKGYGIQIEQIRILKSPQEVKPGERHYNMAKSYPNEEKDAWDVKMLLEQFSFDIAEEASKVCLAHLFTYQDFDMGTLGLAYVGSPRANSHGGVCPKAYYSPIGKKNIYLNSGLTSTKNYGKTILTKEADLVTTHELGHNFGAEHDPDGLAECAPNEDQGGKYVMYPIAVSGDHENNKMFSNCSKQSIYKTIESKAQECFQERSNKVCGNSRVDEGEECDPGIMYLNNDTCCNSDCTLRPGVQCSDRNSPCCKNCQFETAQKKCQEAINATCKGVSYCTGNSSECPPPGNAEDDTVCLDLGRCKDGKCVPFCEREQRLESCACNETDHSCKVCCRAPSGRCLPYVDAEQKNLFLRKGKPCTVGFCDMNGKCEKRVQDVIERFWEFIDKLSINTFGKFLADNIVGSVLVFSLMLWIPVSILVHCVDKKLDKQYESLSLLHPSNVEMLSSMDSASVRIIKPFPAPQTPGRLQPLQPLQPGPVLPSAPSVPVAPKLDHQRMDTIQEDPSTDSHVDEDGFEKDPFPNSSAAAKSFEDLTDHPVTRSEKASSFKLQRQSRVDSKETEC
Disintegrin and metalloproteinase domain-containing protein 17 (Homo sapiens, UniProt P78536), sequence (P78536 whole entry, the tested form may be a part): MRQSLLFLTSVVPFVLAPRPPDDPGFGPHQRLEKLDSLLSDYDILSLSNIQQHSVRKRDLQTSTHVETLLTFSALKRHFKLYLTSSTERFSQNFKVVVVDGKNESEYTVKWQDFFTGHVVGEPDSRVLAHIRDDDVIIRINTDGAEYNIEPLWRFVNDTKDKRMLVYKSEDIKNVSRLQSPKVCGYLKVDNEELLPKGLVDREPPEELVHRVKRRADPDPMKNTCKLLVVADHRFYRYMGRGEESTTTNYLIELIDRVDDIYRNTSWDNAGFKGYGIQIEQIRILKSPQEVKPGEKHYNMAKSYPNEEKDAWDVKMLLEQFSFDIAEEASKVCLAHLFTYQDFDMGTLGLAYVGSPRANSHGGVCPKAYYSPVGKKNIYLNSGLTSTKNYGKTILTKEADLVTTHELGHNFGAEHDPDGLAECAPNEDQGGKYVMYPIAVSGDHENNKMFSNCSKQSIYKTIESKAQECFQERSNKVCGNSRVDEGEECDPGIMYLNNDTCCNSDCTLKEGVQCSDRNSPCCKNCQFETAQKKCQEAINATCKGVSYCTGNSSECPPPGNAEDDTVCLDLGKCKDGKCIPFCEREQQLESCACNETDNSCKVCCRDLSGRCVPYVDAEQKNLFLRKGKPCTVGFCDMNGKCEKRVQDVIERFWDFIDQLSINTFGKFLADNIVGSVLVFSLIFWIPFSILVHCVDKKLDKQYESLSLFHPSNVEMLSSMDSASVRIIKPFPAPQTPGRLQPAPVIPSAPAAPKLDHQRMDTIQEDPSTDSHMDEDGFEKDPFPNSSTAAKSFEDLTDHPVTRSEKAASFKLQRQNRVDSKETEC
72 kDa type IV collagenase, sequence (P08253 whole entry, the tested form may be a part): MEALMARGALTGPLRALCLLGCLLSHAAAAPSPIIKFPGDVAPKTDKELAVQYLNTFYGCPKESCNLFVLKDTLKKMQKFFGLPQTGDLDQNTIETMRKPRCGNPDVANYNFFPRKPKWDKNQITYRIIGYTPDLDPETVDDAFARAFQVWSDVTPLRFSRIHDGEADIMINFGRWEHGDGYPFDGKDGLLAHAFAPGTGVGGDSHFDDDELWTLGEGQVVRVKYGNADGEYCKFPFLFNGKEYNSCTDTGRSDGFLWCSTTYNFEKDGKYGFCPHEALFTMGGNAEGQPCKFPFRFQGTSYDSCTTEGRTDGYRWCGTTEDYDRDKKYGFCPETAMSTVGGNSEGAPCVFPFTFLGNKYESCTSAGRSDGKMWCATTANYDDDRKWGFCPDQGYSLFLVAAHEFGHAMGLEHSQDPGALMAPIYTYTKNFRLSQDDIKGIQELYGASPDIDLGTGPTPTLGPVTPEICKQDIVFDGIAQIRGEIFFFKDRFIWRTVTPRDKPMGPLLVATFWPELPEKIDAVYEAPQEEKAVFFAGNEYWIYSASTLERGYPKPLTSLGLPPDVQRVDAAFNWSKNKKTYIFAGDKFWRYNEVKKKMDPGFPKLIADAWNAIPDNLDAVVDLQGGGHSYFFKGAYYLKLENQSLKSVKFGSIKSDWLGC

Usually Ki stands for a measure of affinity in units of concentration, obtained from inhibition or displacement. By IC50 is commonly meant the concentration at which inhibition is half-maximal. Lower therefore signals greater potency. `Cc1cc(COc2ccc(N3CC[C@H]([C@H](NC(=O)OC(C)(C)C)C(=O)NO)C3=O)cc2)cc(C)n1`: the inhibitory constant (Ki) on Interstitial collagenase was 2.24 µM; in assay [1], above 3 µM. Besides, the IC50 was above 3 µM in assay [2] and 0.006 µM in assay [3].
For the molecule `Cc1cc(COc2ccc(N3CC[C@H]([C@@H](C(=O)NO)N4CCCC4)C3=O)cc2)c2ccccc2n1`, the values for the Ki (on Interstitial collagenase; in assay [1]; in assay [4]) were above 5 µM, above 3 µM and above 2 µM, respectively. Besides, the IC50 in assay [2] was above 10 µM; in assay [3], 0.026 µM.
Taken in the same sequence, the figures for `Cc1cc(COc2ccc(N3CC[C@](N)(CC(=O)NO)C3=O)cc2)c2ccccc2n1` were above 5 µM, above 3 µM, above 2 µM, 4.8 µM and 0.005 µM.
For `Cc1cc(COc2ccc(N3CC[C@H]([C@H](NC(=O)c4ccccc4)C(=O)NO)C3=O)cc2)c2ccccc2n1` the same measures were above 5 µM, 0.435 µM, above 2 µM, 9.1 µM and 0.001 µM.
As to `Cc1cc(COc2ccc(N3CC[C@H]([C@@H](C(=O)NO)N(C)C)C3=O)cc2)c2ccccc2n1`, the Ki is above 5 µM on Interstitial collagenase, above 3 µM in assay [1] and above 2 µM in assay [4]. Further, the figures for the IC50 in assay [2] and in assay [3] were 1.5 µM and 0.007 µM, respectively.
For the molecule `Cc1cc(COc2ccc(N3CC[C@H]([C@H](N)C(=O)NO)C3=O)cc2)cc(C)n1`, the figures for the Ki (at Interstitial collagenase; in assay [1]; in assay [4]) were above 5 µM, above 3 µM and above 2 µM, respectively. Moreover, the IC50 in assay [2] is above 10 µM; in assay [3], 0.05 µM.
`Cc1cc(COc2ccc(N3CC[C@H]([C@H](NC(=O)OC(C)(C)C)C(=O)NO)C3=O)cc2)c2ccccc2n1`: the Ki at Interstitial collagenase was determined as 0.788 µM; in assay [1] it was 0.324 µM; in assay [4], 0.291 µM. The IC50 in assay [2] was 0.42 µM; in assay [3], 0.001 µM.
Taken in the same sequence, the figures for `Cc1cc(COc2ccc(N3CC[C@](N)([C@H](C)C(=O)NO)C3=O)cc2)c2ccccc2n1` were above 5 µM, above 3 µM, above 2 µM, 1.1 µM and 0.002 µM.
With `CCC[C@@H](C(=O)NO)[C@H]1CCN(c2ccc(OCc3cc(C)nc4ccccc34)cc2)C1=O`, the figures for the Ki (at Interstitial collagenase; in assay [1]; in assay [4]) were above 5 µM, above 3 µM and above 2 µM, respectively. The molecule also had an IC50 in assay [3] of 0.14 µM.
With `CCCCOC(=O)N[C@H](C(=O)NO)[C@H]1CCN(c2ccc(OCc3cc(C)nc4ccccc34)cc2)C1=O`, the results for the Ki (on Interstitial collagenase; in assay [1]; in assay [4]) were above 1.63 µM, above 0.305 µM and above 2 µM, respectively. In addition, the IC50 in assay [2] amounted to 6.83 µM; in assay [3], 0.002 µM.
Take `CCC[C@H](C(=O)NO)[C@@]1(N)CCN(c2ccc(OCc3cc(C)nc4ccccc34)cc2)C1=O`: the figures for the Ki (on Interstitial collagenase; in assay [1]; in assay [4]) were above 5 µM, above 3 µM and above 2 µM, respectively. Besides, the results for the IC50 in assay [2] and in assay [3] were above 3 µM and 0.004 µM, respectively.
Regarding `CCC[C@@H](C(=O)NO)[C@@]1(N)CCN(c2ccc(OCc3cc(C)nc4ccccc34)cc2)C1=O`, the Ki at Interstitial collagenase is above 5 µM; in assay [1], above 3 µM; in assay [4] it was above 2 µM. Besides, the figures for the IC50 in assay [2] and in assay [3] were above 10 µM and 0.405 µM, respectively.
On to `Cc1cc(COc2ccc(N3CC[C@H]([C@H](NC(=O)C(C)(C)C)C(=O)NO)C3=O)cc2)c2ccccc2n1`, for which the values for the Ki (at Interstitial collagenase; in assay [1]; in assay [4]) were above 5 µM, 1.24 µM and above 2 µM, respectively. Further, the IC50 in assay [2] was 4.95 µM; in assay [3] it was below 0.001 µM.
Turning to `Cc1cc(COc2ccc(N3CC[C@@]([C@H](C)C(=O)NO)(N(C)C)C3=O)cc2)c2ccccc2n1`, the values for the Ki (at Interstitial collagenase; in assay [4]) were above 5 µM and 1.3 µM, respectively. Moreover, the results for the IC50 in assay [2] and in assay [3] were above 3 µM and 0.012 µM, respectively.
For `COC(=O)N[C@H](C(=O)NO)[C@H]1CCN(c2ccc(OCc3cc(C)nc4ccccc34)cc2)C1=O`, the Ki on Interstitial collagenase was above 5 µM; in assay [1], 0.482 µM; in assay [4], above 2 µM. The IC50 was 2.65 µM in assay [2] and below 0.001 µM in assay [3].
Take `C[C@@H]([C@H]1CCN(c2ccc(OCc3ccccc3)cc2)C1=O)N(O)C=O`: the values for the Ki (at Interstitial collagenase; in assay [1]; in assay [4]) were above 5 µM, above 0.567 µM and above 2 µM, respectively. Moreover, the IC50 is above 10 µM in assay [2] and 0.111 µM in assay [3].
`Cc1cc(COc2ccc(N3CC[C@H]([C@@H](C)C(=O)NO)C3=O)cc2)c2ccccc2n1`: the Ki is above 5 µM at Interstitial collagenase, above 3 µM in assay [1] and above 2 µM in assay [4]. Further, the IC50 in assay [2] was above 3 µM; in assay [3] it was 0.052 µM.
For the molecule `CC(=O)N[C@H](C(=O)NO)[C@H]1CCN(c2ccc(OCc3cc(C)nc4ccccc34)cc2)C1=O`, the Ki at Interstitial collagenase was above 5 µM; in assay [1], 0.194 µM; in assay [4] it was above 2 µM. The IC50 in assay [2] was found to be 1.56 µM; in assay [3] it was 0.001 µM.
Turning to `Cc1cc(COc2ccc(N3CC[C@H]([C@H](C)C(=O)NO)C3=O)cc2)c2ccccc2n1`, the Ki was above 5 µM at Interstitial collagenase, above 1.27 µM in assay [1] and above 2 µM in assay [4]. The IC50 in assay [2] was 1.57 µM; in assay [3], 0.001 µM.
In the case of `Cc1cc(COc2ccc(N3CC[C@H]([C@H](NC(=O)N4CCOCC4)C(=O)NO)C3=O)cc2)c2ccccc2n1`, the Ki is above 5 µM at Interstitial collagenase, 0.805 µM in assay [1] and above 2 µM in assay [4]. Further, the 50% inhibitory concentration (IC50) in assay [2] is 0.84 µM; in assay [3] it was below 0.001 µM.
As for `Cc1cc(COc2ccc(N3CC[C@H]([C@H](C)N(O)C=O)C3=O)cc2)c2ccccc2n1`, the Ki on Interstitial collagenase is above 5 µM; in assay [1], above 3 µM; in assay [4], above 2 µM. For the same molecule, the IC50 in assay [2] is 8.7 µM; in assay [3], 0.002 µM.
Taken in the same sequence, the figures for `Cc1cc(COc2ccc(N3CC[C@H]([C@H](N)C(=O)NO)C3=O)cc2)c2ccccc2n1` were above 5 µM, 0.446 µM, 1.96 µM, 1.7 µM and 0.002 µM.
In the case of `Cc1cc(COc2ccc(N3CC[C@H]([C@H](O)C(=O)NO)C3=O)cc2)c2ccccc2n1`, the Ki was above 5 µM on Interstitial collagenase, above 3 µM in assay [1] and above 2 µM in assay [4]. In addition, the IC50 in assay [2] was 2.4 µM; in assay [3] it was 0.003 µM.
